{"source": "ChEMBL document CHEMBL5579895", "about": "“Discovery of TYRA-300: First Oral Selective FGFR3 Inhibitor for the Treatment of Urothelial Cancers and Achondroplasia” (J Med Chem, 2024)", "key": {"[1]": {"target": "Fibroblast growth factor receptor 4 (Homo sapiens, UniProt P22455)", "sequence (P22455 whole entry)": "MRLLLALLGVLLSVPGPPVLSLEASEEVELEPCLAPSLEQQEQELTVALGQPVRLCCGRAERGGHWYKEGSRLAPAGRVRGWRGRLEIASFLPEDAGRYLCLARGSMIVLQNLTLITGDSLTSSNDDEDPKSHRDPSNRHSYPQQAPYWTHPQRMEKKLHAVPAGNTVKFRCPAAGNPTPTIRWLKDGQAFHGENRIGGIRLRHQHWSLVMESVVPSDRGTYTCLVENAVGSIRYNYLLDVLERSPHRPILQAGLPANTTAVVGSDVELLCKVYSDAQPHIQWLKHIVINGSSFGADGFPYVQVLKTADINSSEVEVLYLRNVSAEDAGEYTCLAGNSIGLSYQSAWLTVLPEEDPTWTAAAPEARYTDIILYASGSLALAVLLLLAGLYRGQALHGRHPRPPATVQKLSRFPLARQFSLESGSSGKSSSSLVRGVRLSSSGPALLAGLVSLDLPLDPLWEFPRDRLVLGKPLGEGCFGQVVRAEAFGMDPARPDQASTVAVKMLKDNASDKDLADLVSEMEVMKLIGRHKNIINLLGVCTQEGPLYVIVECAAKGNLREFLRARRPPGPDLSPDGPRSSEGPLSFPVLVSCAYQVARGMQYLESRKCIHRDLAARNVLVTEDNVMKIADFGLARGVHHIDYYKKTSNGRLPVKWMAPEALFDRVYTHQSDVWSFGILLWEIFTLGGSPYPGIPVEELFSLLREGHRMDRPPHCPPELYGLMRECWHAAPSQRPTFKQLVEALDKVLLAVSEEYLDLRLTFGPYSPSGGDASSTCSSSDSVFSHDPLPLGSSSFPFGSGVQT", "experiment": "Inhibition of human FGFR4 by KINOMEscan analysis"}, "[2]": {"experiment": "Tmax in dog at 10 mg/kg, po measured for 24 hrs by LC-MS/MS analysis", "type": "ADME, organism-based, Canis lupus familiaris", "settings": "in vivo"}, "[3]": {"target": "Leukocyte tyrosine kinase receptor (Homo sapiens, UniProt P29376)", "experiment": "Inhibition of human LTK by KINOMEscan analysis"}, "[4]": {"experiment": "Inhibition of recombinant FGFR3/BAIAP2L1 (unknown origin) transduced in mouse BaF3 cells incubated for 48 hrs by Cell Titer Glo assay", "type": "cell-based", "settings": "BaF3, 48 h"}, "[5]": {"target": "Tyrosine-protein kinase JAK3 (Homo sapiens, UniProt P52333)", "sequence (P52333 whole entry)": "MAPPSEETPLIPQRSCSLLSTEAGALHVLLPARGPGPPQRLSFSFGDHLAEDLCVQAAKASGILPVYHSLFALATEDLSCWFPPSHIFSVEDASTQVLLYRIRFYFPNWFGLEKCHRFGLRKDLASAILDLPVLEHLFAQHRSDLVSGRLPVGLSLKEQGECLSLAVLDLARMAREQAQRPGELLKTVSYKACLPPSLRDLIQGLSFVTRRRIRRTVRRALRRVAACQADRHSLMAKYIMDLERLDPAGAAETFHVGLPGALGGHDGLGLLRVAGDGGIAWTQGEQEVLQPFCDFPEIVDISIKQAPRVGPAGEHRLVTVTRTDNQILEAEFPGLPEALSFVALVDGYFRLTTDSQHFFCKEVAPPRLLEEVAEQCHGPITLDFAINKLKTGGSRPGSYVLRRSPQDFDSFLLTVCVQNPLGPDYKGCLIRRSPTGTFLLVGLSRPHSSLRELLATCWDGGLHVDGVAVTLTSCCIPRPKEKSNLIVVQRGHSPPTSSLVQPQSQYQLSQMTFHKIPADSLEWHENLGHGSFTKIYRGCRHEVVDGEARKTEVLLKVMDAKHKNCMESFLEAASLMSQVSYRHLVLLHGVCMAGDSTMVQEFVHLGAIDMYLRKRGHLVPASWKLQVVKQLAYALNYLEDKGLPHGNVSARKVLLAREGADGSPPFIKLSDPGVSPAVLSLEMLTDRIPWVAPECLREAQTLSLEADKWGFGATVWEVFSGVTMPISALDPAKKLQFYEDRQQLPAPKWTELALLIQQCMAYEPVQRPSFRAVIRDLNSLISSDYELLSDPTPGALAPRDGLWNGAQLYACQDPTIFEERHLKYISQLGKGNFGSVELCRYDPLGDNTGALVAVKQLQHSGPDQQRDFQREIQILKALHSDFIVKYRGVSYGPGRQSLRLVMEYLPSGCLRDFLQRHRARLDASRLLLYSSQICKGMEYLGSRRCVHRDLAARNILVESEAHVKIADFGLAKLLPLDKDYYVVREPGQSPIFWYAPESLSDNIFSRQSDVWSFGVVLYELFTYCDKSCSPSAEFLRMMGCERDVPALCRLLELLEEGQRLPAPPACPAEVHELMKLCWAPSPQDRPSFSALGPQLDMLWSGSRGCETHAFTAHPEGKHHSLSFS", "experiment": "Inhibition of human JAK3 by KINOMEscan analysis"}, "[6]": {"experiment": "Oral bioavailability in Sprague-Dawley rat at 10 mg/kg measured for 24 hrs by LC-MS/MS analysis", "type": "ADME, organism-based", "settings": "in vivo"}, "[7]": {"experiment": "AUC (last) in monkey at 10 mg/kg, po measured for 24 hrs by LC-MS/MS analysis", "type": "ADME, organism-based, Macaca mulatta", "settings": "rhesus monkey, in vivo"}, "[8]": {"target": "Vascular endothelial growth factor receptor 1 (Homo sapiens, UniProt P17948)", "sequence (P17948 whole entry)": "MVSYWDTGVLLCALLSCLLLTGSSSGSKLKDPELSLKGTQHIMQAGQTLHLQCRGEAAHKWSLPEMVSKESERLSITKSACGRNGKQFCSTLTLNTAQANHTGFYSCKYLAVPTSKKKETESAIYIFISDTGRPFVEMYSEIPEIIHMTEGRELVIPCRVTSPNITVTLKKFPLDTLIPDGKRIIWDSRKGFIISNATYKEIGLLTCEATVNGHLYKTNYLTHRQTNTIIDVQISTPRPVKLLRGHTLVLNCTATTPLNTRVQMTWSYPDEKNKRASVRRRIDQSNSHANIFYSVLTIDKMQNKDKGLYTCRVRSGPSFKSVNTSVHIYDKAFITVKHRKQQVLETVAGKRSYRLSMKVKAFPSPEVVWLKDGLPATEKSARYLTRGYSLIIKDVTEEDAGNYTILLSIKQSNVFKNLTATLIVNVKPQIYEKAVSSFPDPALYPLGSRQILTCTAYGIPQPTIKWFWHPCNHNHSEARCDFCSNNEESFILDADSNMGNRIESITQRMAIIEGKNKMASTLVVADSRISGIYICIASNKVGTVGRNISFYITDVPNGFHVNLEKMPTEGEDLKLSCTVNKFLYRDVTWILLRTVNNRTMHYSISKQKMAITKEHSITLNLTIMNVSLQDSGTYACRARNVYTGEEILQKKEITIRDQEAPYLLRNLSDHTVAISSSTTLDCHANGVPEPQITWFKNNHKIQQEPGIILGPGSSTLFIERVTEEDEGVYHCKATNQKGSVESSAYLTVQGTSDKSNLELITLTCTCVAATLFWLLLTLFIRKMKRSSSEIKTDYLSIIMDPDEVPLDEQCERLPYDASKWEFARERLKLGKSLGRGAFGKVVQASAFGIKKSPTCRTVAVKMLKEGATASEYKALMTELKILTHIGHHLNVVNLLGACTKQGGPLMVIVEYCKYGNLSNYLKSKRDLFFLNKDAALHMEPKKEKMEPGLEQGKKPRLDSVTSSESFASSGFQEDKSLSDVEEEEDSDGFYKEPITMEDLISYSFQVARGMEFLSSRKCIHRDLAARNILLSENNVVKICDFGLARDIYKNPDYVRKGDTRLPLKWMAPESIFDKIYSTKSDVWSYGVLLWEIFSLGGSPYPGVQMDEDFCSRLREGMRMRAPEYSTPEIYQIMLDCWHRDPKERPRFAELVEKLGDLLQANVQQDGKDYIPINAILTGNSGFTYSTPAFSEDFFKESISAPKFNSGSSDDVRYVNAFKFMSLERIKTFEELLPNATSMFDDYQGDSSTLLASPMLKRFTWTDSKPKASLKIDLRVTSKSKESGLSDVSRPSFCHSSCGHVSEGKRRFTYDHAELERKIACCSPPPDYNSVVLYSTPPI", "experiment": "Inhibition of human FLT1 by KINOMEscan analysis"}, "[9]": {"experiment": "Cmax in monkey at 10 mg/kg, po measured for 24 hrs by LC-MS/MS analysis", "type": "ADME, organism-based, Macaca mulatta", "settings": "rhesus monkey, in vivo"}, "[10]": {"experiment": "Inhibition of cell viability in human UMUC14 cells harboring FGFR3 V555M mutant incubated for 72 to 120 hrs by Cell Titer Glo assay", "type": "functional, cell-based"}, "[11]": {"experiment": "Half life in dog at 1 mg/kg, iv measured for 24 hrs by LC-MS/MS analysis", "type": "ADME, organism-based, Canis lupus familiaris", "settings": "in vivo"}, "[12]": {"target": "Vascular endothelial growth factor receptor 3 (Homo sapiens, UniProt P35916)", "sequence (P35916 whole entry)": "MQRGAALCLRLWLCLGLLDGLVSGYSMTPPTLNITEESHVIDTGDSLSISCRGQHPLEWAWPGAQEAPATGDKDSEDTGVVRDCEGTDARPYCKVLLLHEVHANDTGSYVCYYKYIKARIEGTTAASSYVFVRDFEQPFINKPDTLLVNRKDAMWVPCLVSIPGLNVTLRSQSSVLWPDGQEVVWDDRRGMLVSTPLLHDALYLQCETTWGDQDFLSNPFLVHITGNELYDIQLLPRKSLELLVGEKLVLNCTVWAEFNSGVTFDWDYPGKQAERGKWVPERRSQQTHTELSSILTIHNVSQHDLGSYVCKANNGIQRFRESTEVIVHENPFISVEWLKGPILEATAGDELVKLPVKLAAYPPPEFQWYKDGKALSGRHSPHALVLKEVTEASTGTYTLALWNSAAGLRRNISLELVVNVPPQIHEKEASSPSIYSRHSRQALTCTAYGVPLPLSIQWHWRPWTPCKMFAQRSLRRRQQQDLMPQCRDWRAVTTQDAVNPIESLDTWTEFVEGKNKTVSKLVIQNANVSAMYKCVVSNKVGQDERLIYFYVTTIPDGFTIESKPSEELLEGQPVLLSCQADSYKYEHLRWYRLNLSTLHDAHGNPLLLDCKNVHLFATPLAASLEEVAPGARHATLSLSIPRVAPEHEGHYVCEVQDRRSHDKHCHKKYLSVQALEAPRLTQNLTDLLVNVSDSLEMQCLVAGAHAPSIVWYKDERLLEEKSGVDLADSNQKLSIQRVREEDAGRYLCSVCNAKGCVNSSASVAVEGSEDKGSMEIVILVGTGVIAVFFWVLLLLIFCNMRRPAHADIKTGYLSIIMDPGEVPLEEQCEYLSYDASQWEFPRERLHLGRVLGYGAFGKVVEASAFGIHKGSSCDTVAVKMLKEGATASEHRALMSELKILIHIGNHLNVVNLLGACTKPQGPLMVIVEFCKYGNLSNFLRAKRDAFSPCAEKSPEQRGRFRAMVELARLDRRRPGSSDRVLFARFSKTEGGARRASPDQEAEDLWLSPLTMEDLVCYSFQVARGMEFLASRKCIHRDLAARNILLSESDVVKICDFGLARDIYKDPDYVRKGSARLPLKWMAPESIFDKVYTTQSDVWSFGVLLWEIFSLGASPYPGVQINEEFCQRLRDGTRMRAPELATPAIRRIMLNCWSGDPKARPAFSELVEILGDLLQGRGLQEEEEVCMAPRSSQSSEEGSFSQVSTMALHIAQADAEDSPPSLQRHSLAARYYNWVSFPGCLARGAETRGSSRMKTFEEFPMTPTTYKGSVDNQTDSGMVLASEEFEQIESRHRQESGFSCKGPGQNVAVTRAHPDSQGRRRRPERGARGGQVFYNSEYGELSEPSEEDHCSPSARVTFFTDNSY", "experiment": "Inhibition of human FLT4 by KINOMEscan analysis"}, "[13]": {"system": "RT112/84", "experiment": "animal or person", "type": "functional, Homo sapiens", "settings": "Mus musculus, RT112/84, 504 h, route po, time 21 day, read-out: TGI", "description": "Antitumor activity against human RT112/84 cells harboring FGFR3/TACC3 fusion xenografted in Balb/c nude mouse model at 12.5 mg/kg, po bid treated for 21 days relative to control"}, "[14]": {"experiment": "Volume of distribution in Sprague-Dawley rat at 2 mg/kg, iv measured for 24 hrs by LC-MS/MS analysis", "type": "ADME, organism-based", "settings": "in vivo"}, "[15]": {"target": "Fibroblast growth factor receptor 3 (Homo sapiens, UniProt P22607, V555M)", "experiment": "Inhibition of FGFR3 V555M mutant (unknown origin) by mobility shift assay"}}}
{"smiles": "C[C@@H](Oc1ccc2[nH]nc(-c3ccc(N4CC5(C4)CN(S(C)(=O)=O)C5)nc3)c2c1)c1c(Cl)cncc1Cl", "values": [{"measurement": "IC50", "setting": "[1]", "result": 11, "unit": "nM"}, {"measurement": "Tmax", "setting": "[2]", "result": 6, "unit": "h"}, {"measurement": "IC50", "setting": "[3]", "result": 65, "unit": "nM"}, {"measurement": "IC50", "setting": "[4]", "result": 11, "unit": "nM"}, {"measurement": "IC50", "setting": "[5]", "result": 206, "unit": "nM"}, {"measurement": "bioavailability", "setting": "[6]", "result": 39, "unit": "%"}, {"measurement": "AUC(0-t) at 24 h", "setting": "[7]", "result": 15900, "unit": "ng·h/mL"}, {"measurement": "IC50", "setting": "[8]", "result": 201, "unit": "nM"}, {"measurement": "Cmax", "setting": "[9]", "result": 1210, "unit": "ng/mL"}, {"measurement": "IC50", "setting": "[10]", "result": 21, "unit": "nM"}, {"measurement": "half-life", "setting": "[11]", "result": 5.52, "unit": "h"}, {"measurement": "IC50", "setting": "[12]", "result": 2.1, "unit": "nM"}, {"measurement": "inhibition in vivo at 12.5 mg/kg", "setting": "[13]", "result": 95, "unit": "%"}, {"measurement": "Vd", "setting": "[14]", "result": 2.5, "unit": "L/kg"}, {"measurement": "IC50", "setting": "[15]", "result": 2, "unit": "nM"}]}
